Drawing on patent US20100184989A1, “De Novo Synthesis of Conjugates” (Nektar Therapeutics, priority 2007, published 2010), this text covers IC50 for four compounds.

Each structure is given as a SMILES string.

The target in the test is calcium channel type L (Rattus norvegicus, UniProt P22002). The test is described as follows: Calcium channel type L binding assay, [3H]Nitrendipine displacement. Conditions: rat cortical membranes; [3H]Nitrendipine 0.2 nM; 50 mM TRIS-HCl pH 7.7, 25° C., 60 minutes; nifedipine reference value given beside each test compound. The protocol: In the assay, rat cortical membranes were used as a receptor source and the radioligand [^3H]Nitrendipine (70-87 Ci/mmol) was used at a final ligand concentration of 0.2 nM. […] The reactions were carried out in 50 mM TRIS-HCl (pH 7.7) at 25° C. for 60 minutes. The reaction was terminated by rapid vacuum filtration onto glass fiber filters. Radioactivity trapped onto the filters was determined and compared to control values in order to ascertain any interactions of test compound with the nitredipine binding site (Gould, Murphy, and Snyder. Molecular Pharmacology 25, 235-241 (1984)).
Sequence of calcium channel type L (P22002 whole entry): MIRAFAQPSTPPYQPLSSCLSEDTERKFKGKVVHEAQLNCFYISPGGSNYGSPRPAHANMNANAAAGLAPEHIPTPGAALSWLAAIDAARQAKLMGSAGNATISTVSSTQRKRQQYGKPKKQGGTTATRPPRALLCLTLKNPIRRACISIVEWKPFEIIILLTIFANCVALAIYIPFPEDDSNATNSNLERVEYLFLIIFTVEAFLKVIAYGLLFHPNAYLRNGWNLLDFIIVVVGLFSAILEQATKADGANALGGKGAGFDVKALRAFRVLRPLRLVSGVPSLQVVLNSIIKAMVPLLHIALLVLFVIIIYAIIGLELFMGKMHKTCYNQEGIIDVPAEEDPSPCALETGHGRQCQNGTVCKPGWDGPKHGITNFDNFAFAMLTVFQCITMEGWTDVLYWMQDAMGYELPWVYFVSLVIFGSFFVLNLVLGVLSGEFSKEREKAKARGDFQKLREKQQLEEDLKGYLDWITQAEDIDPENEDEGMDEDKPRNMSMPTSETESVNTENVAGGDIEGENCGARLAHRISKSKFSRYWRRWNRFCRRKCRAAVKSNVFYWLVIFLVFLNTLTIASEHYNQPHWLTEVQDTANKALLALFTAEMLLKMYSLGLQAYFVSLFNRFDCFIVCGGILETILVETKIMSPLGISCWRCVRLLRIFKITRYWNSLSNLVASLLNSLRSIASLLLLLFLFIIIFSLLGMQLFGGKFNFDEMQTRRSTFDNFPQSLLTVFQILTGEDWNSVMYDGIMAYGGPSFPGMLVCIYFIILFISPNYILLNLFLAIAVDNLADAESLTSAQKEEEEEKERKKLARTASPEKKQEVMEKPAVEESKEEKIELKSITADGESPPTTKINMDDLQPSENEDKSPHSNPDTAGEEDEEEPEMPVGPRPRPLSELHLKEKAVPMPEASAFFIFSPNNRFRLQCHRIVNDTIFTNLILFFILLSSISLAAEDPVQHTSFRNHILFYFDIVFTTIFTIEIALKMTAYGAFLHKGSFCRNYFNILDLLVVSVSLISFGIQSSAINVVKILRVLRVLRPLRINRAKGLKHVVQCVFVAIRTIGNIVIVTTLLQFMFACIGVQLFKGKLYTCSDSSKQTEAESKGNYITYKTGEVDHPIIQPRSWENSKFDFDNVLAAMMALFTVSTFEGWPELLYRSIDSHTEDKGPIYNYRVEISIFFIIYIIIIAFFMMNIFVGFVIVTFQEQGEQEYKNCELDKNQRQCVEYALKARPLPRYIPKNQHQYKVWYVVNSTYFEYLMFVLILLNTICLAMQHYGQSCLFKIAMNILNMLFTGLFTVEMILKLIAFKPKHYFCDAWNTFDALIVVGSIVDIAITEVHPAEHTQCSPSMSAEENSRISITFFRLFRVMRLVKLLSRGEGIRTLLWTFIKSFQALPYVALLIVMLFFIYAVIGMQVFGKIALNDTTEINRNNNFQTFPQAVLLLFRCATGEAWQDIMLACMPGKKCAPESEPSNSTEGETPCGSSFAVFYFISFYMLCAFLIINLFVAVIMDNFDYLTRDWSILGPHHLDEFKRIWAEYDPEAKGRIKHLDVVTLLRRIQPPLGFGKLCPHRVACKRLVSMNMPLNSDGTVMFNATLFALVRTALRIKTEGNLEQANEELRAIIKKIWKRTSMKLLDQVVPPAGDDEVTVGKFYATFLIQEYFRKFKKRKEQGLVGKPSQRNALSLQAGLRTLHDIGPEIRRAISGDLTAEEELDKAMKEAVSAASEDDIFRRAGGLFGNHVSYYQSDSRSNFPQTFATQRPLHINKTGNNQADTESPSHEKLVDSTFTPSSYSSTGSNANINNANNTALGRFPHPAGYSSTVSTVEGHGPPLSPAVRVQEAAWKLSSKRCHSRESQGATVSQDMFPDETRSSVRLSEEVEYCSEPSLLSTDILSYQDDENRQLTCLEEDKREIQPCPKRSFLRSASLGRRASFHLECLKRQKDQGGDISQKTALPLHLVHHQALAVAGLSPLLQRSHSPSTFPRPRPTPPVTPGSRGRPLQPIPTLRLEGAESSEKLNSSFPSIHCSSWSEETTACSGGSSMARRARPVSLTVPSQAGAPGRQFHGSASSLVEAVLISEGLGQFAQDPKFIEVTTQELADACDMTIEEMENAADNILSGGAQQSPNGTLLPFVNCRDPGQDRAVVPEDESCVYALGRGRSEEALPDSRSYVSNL
One may read the IC50 as the concentration needed to halve the response being measured. Turning to `COCCOCCOCCOC(=O)C1=C(C)NC(C)=C(C(=O)OCCOCCOCCOC)C1c1ccccc1[N+](=O)[O-]` [compound (2) from Example 1, 2,6-dimethyl 4-(2-nitrophenyl)-1,4-dihydropyridine-3,5-dicarboxylic acid dimethoxy tri(ethylene glycol)ester], the IC50 turned out to be 160 nM.

As for `CCCCOCCOCCOC(=O)C1=C(C)NC(C)=C(C(=O)OCCOCCOCCCC)C1c1ccccc1[N+](=O)[O-]` [compound (6b) from Example 3, 2,6-dimethyl 4-(2-nitrophenyl)-1,4-dihydropyridine-3,5-dicarboxylic acid dibutoxy di(ethylene glycol)ester], the 50% inhibitory concentration (IC50) was determined as 15.5 nM.

Regarding `CCCCCCOCCOCCOC(=O)C1=C(C)NC(C)=C(C(=O)OCCOCCOCCCCCC)C1c1ccccc1[N+](=O)[O-]` [compound (6c) from Example 3, 2,6-dimethyl 4-(2-nitrophenyl)-1,4-dihydropyridine-3,5-dicarboxylic acid dihexoxy di(ethylene glycol)Ester], the IC50 is 55.6 nM.

Regarding `COCCOCCOC(=O)C1=C(C)NC(C)=C(C(=O)OCCOCCOC)C1c1ccccc1[N+](=O)[O-]` [compound (6a) from Example 3, 2,6-dimethyl 4-(2-nitrophenyl)-1,4-dihydropyridine-3,5-dicarboxylic acid dimethoxy di(ethylene glycol)ester], the IC50 was 67.4 nM.
